Patent US6469120B1, “Water-stabilized organosilane compounds and methods for using the same” (BioShield Technologies, Inc., priority 1997, dated 2002)

What was measured:
[1] = no stabilizer; cited from earlier work
[2] = Stabilization of aqueous Dow Corning 5772 siloxane solutions by polyols, clarity monitored over time; type: physicochemical
Procedure: However, those skilled in the art will recognize that for practicality and commercial applications, the longer the period for which a stable composition can be achieved the better. Accordingly, a stock of solutions of known concentrations of the stabilizer is prepared in deionized water. A known amount of the solution, and in some cases additional deionized water and the siloxane were mixed in a vial. The vial was sealed with parafilm to prevent evaporation, and stored at ambient temperature.

[3] = 5% siloxane solution with 0.94% to 19% polyol, ambient temperature

For `CCCCCCCCCCCCCCCCCC[N+](C)(C)CCC[Si](OC)(OC)OC.[Cl-]` [3-(trimethoxysilyl)propyl-dimethyloctadecyl ammonium chloride], the “time until mixture with water begins to lose effectiveness” value [1] is given as “four to eight”.
With `O=C1O[C@H]([C@@H](O)CO)C(O)=C1O` [L-ascorbic acid] the “time solution remained clear” value ([2]; 10% siloxane solution with 0.85% to 17% L-ascorbic acid) was “at least five” and the “clarity of solution after two days” value ([2]; as much as 18% siloxane with as little as 0.79% L-ascorbic acid) was “remained clear”.
For `O=CC=O` [glyoxal], the “time solution remained clear” value ([2]; 9% siloxane with 4.1% to 18% glyoxal, aqueous) was “at least three”.
With `OC[C@@H](O)[C@@H](O)[C@H](O)[C@H](O)CO` [mannitol] the “time solution remained clear” value [2, 3] was “seven” and the “solubility of polyol in the siloxane solution” value ([2]; high mannitol concentration, 5% siloxane solution) was “not completely soluble”.
In the case of `OC[C@H]1O[C@@](CO)(O[C@H]2O[C@H](CO)[C@@H](O)[C@H](O)[C@H]2O)[C@@H](O)[C@@H]1O` [sucrose], the “time solution remained clear” value [2, 3] is reported as “at least seven” and the “time solution remained clear” value ([2]; another sample at approximately 5% active siloxane) is reported as “at least eight”.
In the case of `O=C(OC[C@H]1O[C@@H](OC(=O)c2cc(O)c(O)c(OC(=O)c3cc(O)c(O)c(O)c3)c2)[C@H](OC(=O)c2cc(O)c(O)c(OC(=O)c3cc(O)c(O)c(O)c3)c2)[C@@H](OC(=O)c2cc(O)c(O)c(OC(=O)c3cc(O)c(O)c(O)c3)c2)[C@@H]1OC(=O)c1cc(O)c(O)c(OC(=O)c2cc(O)c(O)c(O)c2)c1)c1cc(O)c(O)c(OC(=O)c2cc(O)c(O)c(O)c2)c1` [tannic acid], the “stabilization of siloxane solution” value ([2]; tannic acid siloxane solution) is reported as “not stabilized to any significant degree”.
